# Experimental data taken from patent US5506102A (priority 1993, dated 1996).
# How the values were obtained:
# human estrogen receptor [1] = assay: ER transcriptional activity on MMTV-ERE-LUC, CV-1 cells, ER co-expressed with PR-A; format: cell-based
# Experimental: All values were normalized for transfection efficiency by simultaneous estimation of luciferase and β-galactocidase activities. The relative luciferase activity is calculated by dividing the normalized luciferase value at a given point by that obtained in the absence of transfected receptor or ligand. Data shown represent the mean +/- the average deviation from the mean of triplicate estimations.
# Experimental protocols and data calculation are as described in FIG. 11. The experiment detailed above is representative of independent assays (N>3). Data shown represent the mean +/- the average deviation from the mean of triplicate estimations.
# Vegeto et al., supra. Cells were plated into 96-well tissue culture plates. The vector DNA was introduced into the CV-1 cells using calcium phosphate coprecipitation as described herein. More specifically, 20 μg of DNA/ml of transfection buffer were used in each transfection. Each transfection mix included 0.5 μg of pRST7hER, 9.5 μg of MMTV-ERE-LUC, 5 μg of pCH110, (which contains the gene for β-galactosidase) as an internal control and 5 μg of PGEM4 DNA as a carrier. Depending on the experiment, 0.1 μg pSVhPR-A or pSVhPR-B and an amount of pSVXV2neo (Dr. Bert O'Malley, Baylor College of Medicine) to bring the total amount of DNA to 20 μg was added. The concentration of pXVhPR-A vector chosen was determined by performing the experiment at several different concentrations of vector, and then using that concentration that was optimal for transcriptional readout. The concentration of pSVhPR-B vector was chosen based upon the amount required to give an identical amount of immunoreactive PR-A and PR-B. After transfections using a Biomek 1000 automated laboratory workstation, the cells were incubated with the precipitate for 6 hours. Cells were washed with PBS and incubated for 40 hours with or without hormones as indicated. Cell extracts were prepared as previously described herein and assayed for luciferase (LUC) and β-galactosidase activities. The Normalized LUC activity was calculated by dividing the raw luciferase (×10^4) units for each point by the β-galactosidase activity [(OD415 nm ×10^5)/time min.] at that point.
# human estrogen receptor [2] = assay: ER transcriptional activity on ERE-TK-LUC, CV-1 cells, with PR-A; format: cell-based; details: PR-A co-expressed, CV-1, FIG. 14A
# Experimental: (§1) The experimental protocols and data calculation are as described in FIG. 11 with the exception that the MMTV-ERE-LUC reporter plasmid was replaced with either the ERE-TK-LUC or C3-LUC reporters plasmids. The experiment detailed above is representative of several independent assays. Each measurement was performed in triplicate.
# (§2) The experimental protocols and data calculation are as described in Example 8 with the exception that the MMTV-ERE-LUC reporter plasmid was replaced with either ERE-TK-LUC or C3-LUC.
# human estrogen receptor [3] = assay: ER transcriptional activity on C3-LUC (complement C3 promoter), CV-1 cells, with PR-A; format: cell-based; details: PR-A co-expressed, CV-1, FIG. 14B
# Experimental: as §1, §2
# ER = ER transcriptional activity on MMTV-ERE-LUC in HepG2 and HS578T cells; format: cell-based; details: data not shown
# [4] = system: primate uterus and oviducts; details: cited from earlier work
smiles,measurement,setting,value
"CC#C[C@]1(O)CC[C@H]2[C@@H]3CCC4=CC(=O)CCC4=C3[C@@H](c3ccc(N(C)C)cc3)C[C@@]21C [RU486, 11β-(4-dimethylaminophenyl)-17β-hydroxy-17α-(1-propynyl)-4,9-estradien-3-one]",IC50,"human estrogen receptor [1]; 10^-7 M 17-β-estradiol, read-out: half maximal inhibition (IC50) of ER in the presence of hPR-A",[…]
same,suppression of ER mediated activation of ERE-TK promoter,human estrogen receptor [2],effectively suppressed
same,suppression of ER mediated activation of complement C3 promoter,human estrogen receptor [3],effectively suppressed
same,anti-estrogenic activity,ER; HS578T cells,both anti-progestins functioned as anti-estrogens
same,anti-estrogenic activity,ER; HepG2 cells,neither anti-progestin exhibited any anti-estrogenic activity
same,activity in oviducts,[4]; oviducts of the same animal (primate),only manifests anti-progestenic activity
